Experimental data: PMC4641600, “Novel Activities of Select NSAID R-Enantiomers against Rac1 and Cdc42 GTPases” (PLoS ONE, 2015)

Assays:
Rac1 wt = Rac1 wt (Homo sapiens, UniProt P63000); test: Dose response, BODIPY-GTP binding; settings: 10 nM to 100 µM
[1] = molecular target: Rac1Q61L activating mutant (Homo sapiens, UniProt P63000, Q61L); test: Dose response, BODIPY-GTP binding; settings: 10 nM to 100 µM
Cdc42 wt = Cdc42 wt (Homo sapiens, UniProt P60953); test: Dose response, BODIPY-GTP binding; settings: 10 nM to 100 µM
[2] = molecular target: Cdc42Q61L activating mutant (Homo sapiens, UniProt P60953, Q61L); test: Dose response, BODIPY-GTP binding
H-Ras wt = H-Ras wt (Homo sapiens, UniProt P01112); test: Dose response, BODIPY-GTP binding; settings: 10 nM to 100 µM
Description: (§1) For multiplex analyses of small GTPases, 4 μm diameter glutathione-beads (GSH-beads) distinguished by seven different intensities of red fluorescence were used according to our previously described protocols. The GST-GTPases included the following eight Ras-related small GTPases: Rab2 wt, Rab7 wt, Cdc42 wt, Cdc42Q61L activating mutant, H-Ras wt, H-RasG12V, Rac1 wt and Rac1Q61L activating mutant. Briefly, Prestwick Chemical Library® compounds were tested at 10 μM compound and 1% DMSO final concentrations. After a 10 min pre-incubation with the compound BODIPY- FL-GTP (100 nM final) was added to each well and bead associated fluorescence was measured. Sample analysis was conducted with a HyperCyt® high throughput flow cytometry platform. Flow cytometric light scatter at 488 nm and fluorescence emission at 530 +/− 20 nm (FL1) and 665 +/− 10 nm (FL8) were collected on a Cyan ADP flow cytometer (Beckman Coulter, Fullerton, CA). IDLQuery software was used to determine the compound activity in each well. Gating based on forward scatter (FS) and side scatter (SS) parameters was used to identify singlet bead populations. Gating based on FL8 emission distinguishes the beads coated with different proteins, and the median FL1 fluorescence per bead population were calculated. A compound was considered a “potential active” if the change in BODIPY-FL-GTP binding differed greater than 20% from that measured in DMSO treated controls.
(§2) Test compounds identified for follow-up after the primary screen were tested at dilutions ranging from 10 nM to 100 μM final concentration against individual GTPases in multiplex and single-plex assays. Compounds tested in dose response assays were serially diluted 1:3 a total of eight times from a starting concentration of 10 mM giving a 9-point dilution series in DMSO.
(§3) bConfirmatory screens entailed dose response assays conducted in a multiplex format with eight GTPases tested as for primary screen. BODIPY-GTP-binding activity was
(§4) measured in the presence of 10 nM to 100 µM of each of 11 test compounds (4 primary screen hits and 7 additional NSAIDs considered to have chemical similarity to GTPase
(§5) active compounds). GST-GFP coated beads served as a control to detect non-specific dissociation or denaturation caused by compound addition–none of the tested NSAIDs had
(§6) any effect on bead-GST-protein binding. EC50 values were determined using Prism to determine dose response fits as shown in Figure 1 of main text; fits have R2 > 0.9. Active
(§7) compounds based on same definition used as in primary screena. […]

H-RasG12V = H-RasG12V (Homo sapiens, UniProt P01112, G12V); test: Dose response, BODIPY-GTP binding; settings: 10 nM to 100 µM
Description: as §1, §2, §3, §4, §5, §6, §7
(§8) ‡A well-characterized selective Cdc42 inhibitor served as a positive control.

Rab2 = Rab2 (Homo sapiens, UniProt P61019); test: Dose response, BODIPY-GTP binding; settings: 10 nM to 100 µM
Rab7 = Rab7 (Homo sapiens, UniProt P51149); test: Dose response, BODIPY-GTP binding; settings: 10 nM to 100 µM
Ras-related GTPases = test: Confirmatory dose response assays on eight Ras-related GTPases; format: binding
Description: as §1, §2, §3, §4, §5, §6, §7, §8

GST-Rac1 = GST-Rac1 (Homo sapiens, UniProt P63000); test: In vitro nucleotide binding assay on individual GTPase (13 µm GSH beads); settings: GST-Rac1 and GST-Cdc42; BODIPY-GTP 300 nM
Rac1 [3] = molecular target: T1, Rac1 (Homo sapiens, UniProt P63000); test: G-trap flow cytometric effector binding assay, HeLa cells; format: cell-based
T1 construct: endogenous in cells; host or cells: HeLa

Cdc42 = molecular target: T2, Cdc42 (Homo sapiens, UniProt P60953); test: as above; format: cell-based
T2 construct: endogenous in cells; host or cells: HeLa

Rac1 [4] = molecular target: T3, Rac1 (Mus musculus, UniProt P63001); test: GLISA, Swiss 3T3 cells; format: cell-based
T3 construct: endogenous in cells; host or cells: Swiss 3T3

human COX-1 = molecular target: T4, human COX-1 (Homo sapiens, UniProt P23219); test: Cyclooxygenase assay (CEREP), PGE2 formation; format: biochemical; settings: recombinant enzyme, 4 μM arachidonic acid
T4 construct: purchased CEREP Laboratories (contract assay); host or cells: Sf-9

[5] = tested on: Rac1 membrane localization; test: Rac1 immunolocalization, OvCa433 cells; format: cell-based, human
[6] = tested on: Rac1 and Tiam1 protein levels; test: Immunoblot of protein levels; format: cell-based, human
Description: Cells were stimulated with EGF at a final concentration of 1 nM for 10 min. Cells were lysed in a RIPA buffer consisting of 50 mM Tris pH 7.4, 1% NP-40, 0.25% sodium deoxycholate, 150 mM NaCl, 1 mM EDTA, 1 mM PMSF, 1 mM sodium vanadate, 10 mM sodium fluoride, 1 μg/mL each of pepstatin, aprotinin and leupeptin, 10 mM sodium pyrophosphate and 10 mM beta-glycerophosphate.
N = 3. See also Figure D in S1 File for time dependent loss of Rac1 membrane localization. N = 3 (B) Quantification of image intensity using Image J of 3 representative confocal images as shown in panel (A) containing 20–30 cells/field normalized to actin and untreated controls. (C) Western blot analyses of lysates from cells treated with 300 μM compound as indicated for 24 h as compared to untreated controls. […] Blots were probed for Tiam1 (200 kDa), GAPDH (37 kDa), Rac1 (20 kDa), as a loading control. (D) Quantification of image intensity using Image J. Each marker was normalized to GAPDH and untreated controls. N = 3.

[7] = tested on: OvCa429 and OvCa433 cells; test: Boyden chamber cell migration assay; format: cell-based, human; settings: Homo sapiens; estimated from limited dose response data; read-out: IC50 migration Rac1/Cdc42 dependent (est)
[8] = typical oral dosing (S-Naproxen 500 mg; 6-MNA 750-20000 mg of nabumetone); ref Roche Investigator’s brochure, 9, 10, 17-19, 21, 23; cited from earlier work

Sequence of Cdc42Q61L activating mutant (P60953 whole entry Q61L): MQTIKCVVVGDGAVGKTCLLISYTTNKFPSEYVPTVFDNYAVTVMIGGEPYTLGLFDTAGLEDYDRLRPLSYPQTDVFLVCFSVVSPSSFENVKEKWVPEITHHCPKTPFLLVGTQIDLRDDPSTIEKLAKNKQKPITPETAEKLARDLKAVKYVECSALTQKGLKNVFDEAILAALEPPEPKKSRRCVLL
Sequence of Rab7 (P51149 whole entry, species assumed): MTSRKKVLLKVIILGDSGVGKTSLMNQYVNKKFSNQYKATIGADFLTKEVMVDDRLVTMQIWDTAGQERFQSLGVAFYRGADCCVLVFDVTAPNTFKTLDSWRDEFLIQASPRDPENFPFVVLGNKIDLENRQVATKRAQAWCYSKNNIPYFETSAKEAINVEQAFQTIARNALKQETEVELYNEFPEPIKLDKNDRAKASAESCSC
Sequence of Rab2 (P61019 whole entry, species assumed): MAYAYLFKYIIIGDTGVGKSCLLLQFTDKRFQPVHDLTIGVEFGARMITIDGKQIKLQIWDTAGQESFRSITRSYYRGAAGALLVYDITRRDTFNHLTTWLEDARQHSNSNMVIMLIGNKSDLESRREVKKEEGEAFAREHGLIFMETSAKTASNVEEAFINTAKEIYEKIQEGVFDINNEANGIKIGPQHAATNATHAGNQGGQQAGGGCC
T4 sequence (P23219 24-599): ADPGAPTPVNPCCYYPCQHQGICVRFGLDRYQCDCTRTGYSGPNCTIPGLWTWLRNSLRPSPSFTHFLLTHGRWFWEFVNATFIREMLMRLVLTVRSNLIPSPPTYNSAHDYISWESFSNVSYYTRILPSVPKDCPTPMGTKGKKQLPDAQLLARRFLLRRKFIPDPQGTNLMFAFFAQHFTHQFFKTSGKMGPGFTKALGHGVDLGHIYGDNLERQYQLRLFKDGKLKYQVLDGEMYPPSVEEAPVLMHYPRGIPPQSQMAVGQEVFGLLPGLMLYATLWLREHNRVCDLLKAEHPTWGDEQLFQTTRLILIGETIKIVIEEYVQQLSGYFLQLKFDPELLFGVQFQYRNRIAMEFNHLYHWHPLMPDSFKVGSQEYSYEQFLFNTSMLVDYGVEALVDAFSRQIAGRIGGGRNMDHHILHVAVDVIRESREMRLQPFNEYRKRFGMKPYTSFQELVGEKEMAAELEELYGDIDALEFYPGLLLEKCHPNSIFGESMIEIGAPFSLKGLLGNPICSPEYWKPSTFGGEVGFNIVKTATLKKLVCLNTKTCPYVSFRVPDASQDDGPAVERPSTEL
Sequence of Cdc42 wt (P60953 whole entry): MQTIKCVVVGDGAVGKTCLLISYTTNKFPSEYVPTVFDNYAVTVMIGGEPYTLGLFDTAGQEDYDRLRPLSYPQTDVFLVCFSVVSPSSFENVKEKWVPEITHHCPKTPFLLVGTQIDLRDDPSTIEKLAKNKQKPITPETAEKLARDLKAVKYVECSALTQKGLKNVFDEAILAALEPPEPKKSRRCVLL
T2 sequence (P60953 whole entry): as above

- Rac1 wt EC50 (Rac1 wt): inactive
- Rac1 (act) EC50 [1]: inactive
- Cdc42 wt EC50 (Cdc42 wt): inactive
- activity against the constitutively active Cdc42 mutant [2]: weak activity
- EC50 ([2]; 10 nM to 100 µM, read-out: Cdc42 (act) EC50): 12.3 µM
- H-Ras wt EC50 (H-Ras wt): inactive
- H-Ras (act) EC50 (H-RasG12V): inactive
- Rab2 EC50 (Rab2): inactive
- Rab7 EC50 (Rab7): inactive
- inhibition of BODIPY-GTP binding (GST-Rac1): inactive
- fold lower potency than R-naproxen, Rac1 (Rac1 [3]): up to 6 fold
- fold lower potency than R-naproxen, Cdc42 (Cdc42): 3 fold
- EGF-mediated Rac1 activation (Rac1 [4]; 300 μM, 15 min or 1 h (either time point)): no inhibitory effect
- inhibition at 300 µM (Rac1 [4]; Swiss-3T3, at 300 µM): 0%
- IC50 (human COX-1): 28 µM
- IC50 [7]: > 300 µM
Structure (SMILES): COc1ccc2cc(CC(=O)O)ccc2c1 [6-MNA, 6-methoxy-2-napthalene acetic acid]
- activity against the GTPases in confirmatory dose response assays (words) (Ras-related GTPases; 10 nM to 100 µM): lacked activity
- activity against the GTPases in confirmatory dose response assays (words) (Ras-related GTPases; 10 nM to 100 μM, listed as 6MNA): inactive
- effect (Ras-related GTPases; at 0.1 mM, against all GTPases): less than 20%
- Rac1 membrane localization ([5]; 300 μM): no effect
- Rac PM Localiz. ([5]; immunofluorescence quantified using ImageJ): 98%
- total Rac1 or Tiam1 protein levels ([6]; 300 μM, 24 h, immunoblot): did not alter
- Rac protein expression ([6]; immunoblot analysis): No change
- Serum Cmax [8]: 41200 ng/mL
